Data reported in patent US9133484B2, “Transfection agent” (3-D MATRIX, LTD., priority 2008, dated 2015).

Columns and labels:
[1] = system: cultured human malignant glioma cells (U87MG, T98G, U251MG); test: Relationship between peptide surfactant concentration and siRNA introduction efficiency (RFU); type: cell-based
Experimental: The manner in which the efficiency of introduction of siRNA into cells is dependent on concentration of peptide surfactant was examined by microscopic observation of fluorescent-labeled siRNA.
(§1) <Materials> • *Peptide surfactant • Sequence: Ac-AAAAAAK-NH2 (SEQ ID NO: 17) (Celtek) • *Peptide surfactant concentrations: • 0, 0.5, 1.0, 5.0, 10.0, 20.0, 25.0 μg/ml • *siRNA • siRNA/MMP-2 (Santa Cruz) • *siRNA fluorescent labeling reagent • Label IT Cy-3 Labeling Kit (Mirus) • *Cells • Three types of cultured human malignant glioma cells (U87MG, T98G, U251MG, acquired from ATCC)
siRNA/MMP-2 was labeled with Cy3 using the siRNA fluorescent labeling reagent in accordance with the Minis standard protocol. The labeled siRNA was then mixed with the peptide surfactant. siRNA to a final concentration of 50 nM and peptide surfactant to final concentrations of 0, 0.5, 1, 5, 10, 20 and 25 μg/ml were administered to 1×10^5 cells seeded in a 24-well plate containing medium at 1 ml/well, followed by culturing for 8 hours. After washing the wells with PBS, the cells were recovered and transferred to a 96-well plate where they were measured for optical absorbance.

[2] = Cytotoxicity, MTT cell proliferation assay (Cell Titer 96 Aqueous One Solution); type: cell-based; conditions: human, U87MG malignant glioma cells
Experimental: Cytotoxicity was evaluated using cultured human cells for a peptide surfactant and two types of currently widely used cationic liposome-mediated gene transfer agents.
<Materials> • *Added Substances • 1. Peptide surfactant (sequence: Ac-AAAAAAK-NH2(SEQ ID NO: 17), Celtek) • 2. Lipofectamine 2000 (Invitrogen) • 3. siFECTOR (B-Bridge International, Inc.) • *Cells • Cultured human malignant glioma cells (U87MG, acquired from ATCC) • *MTT Assay Reagent (for cell proliferation assay) • Cell Titer 96 Aqueous One Solution Cell Proliferation Assay Kit (Promega)
The cells were seeded in a 96-well plate in accordance with the recommended ATCC protocol (cell density: 2×10^4/well) followed by incubating overnight. The medium was replaced with fresh medium and the substances were added (final concentrations: 0.0005, 0.001, 0.005, 0.01, 0.05, 0.1, 0.5, 1, 5, 10, 25, 50, 75, 100, 250 and 500 μg/ml). The cells were cultured for 24 hours. After culturing, Cell Titer 96 Aqueous One Solution was added (20 μl/well) followed by measuring optical absorbance at 495 nm with a plate reader 4 hours later to quantify the number of viable cells.

MMP-2 mRNA = test: RNA interference effect by RT-PCR (MMP-2 target, beta-actin internal standard); type: cell-based, human; conditions: siRNA 50 nM/peptide surfactant 20 μg/ml, 8 hours, U87MG, T98G, U251MG (FIGS. 4 to 6)
Experimental: siRNA introduced into cells by peptide surfactant was confirmed to have RNA interference ability by RT-PCR.
<Materials> • *Peptide surfactant • Sequence: Ac-AAAAAAK-NH2 (SEQ ID NO: 17) (Celtek) • *Cells • Three types of cultured human malignant glioma cells (U87MG, T98G, U251MG, acquired from ATCC)
1×10^5 cells were seeded into a 24-well plate and cultured overnight in accordance with the ATCC standard protocol. After removing the medium, the following solutions were added to the final concentrations indicated below followed by culturing for 8 hours under the same culturing conditions as previously described. • (1) Blank control (medium only) • (2) Random oligo siRNA (Dharmacon)/peptide surfactant 20 μg/ml • (3) siRNA 50 nM • (4) Peptide surfactant 20 μg/ml • (5) siRNA 50 nM/peptide surfactant 20 μg/ml
The siRNA was reverse-transcribed to cDNA using the Taqman Gene Expression Cell-to-Ct Kit (Applied Biosystems). Quantitative analysis was carried out using the Applied Biosystems 7500 Real-Time PCR System using MMP-2 for the target and beta-actin for the internal standard by Gene Expression Assay (Applied Biosystems).

[3] = system: cultured human malignant glioma cells (U87MG, T98G, U251MG); test: Introduction of Cy3-labeled siRNA into cells, fluorescence microscopy; type: cell-based; conditions: siRNA 50 nM plus peptide surfactant 20 μg/ml, 8 hours, all three types of cells
Experimental: The introduction of siRNA into cells by peptide surfactant was confirmed by microscopic observation of fluorescent-labeled siRNA.
as §1, with “(Celtek)” for “(Celtek) • *Peptide surfactant concentrations: • 0, 0.5, 1.0, 5.0, 10.0, 20.0, 25.0 μg/ml”, “U251MG, each” for “U251MG,”
siRNA/MMP-2 was labeled with Cy3 using the siRNA fluorescent labeling reagent in accordance with the Mirus protocol. 5000 of the cells were seeded into a chambered slide glass in accordance with the ATCC protocol and incubated for overnight. After removing the medium, siRNA to a final concentration of 50 nM and peptide surfactant to a final concentration of 20 μg/ml were added to 1 ml of medium followed by culturing for 8 hours. In a control group, only siRNA was cultured at a final concentration of 50 nM in 1 ml of medium.

[4] = system: cultured human malignant glioma cells (U87MG, T98G, U251MG); test: Time-based changes in amount of siRNA introduced into cells (RFU); type: cell-based; conditions: siRNA 50 nM, peptide surfactant 20 μg/ml (FIG. 2)
Experimental: Time-based changes in the amounts of siRNA introduced into cells by peptide surfactant were examined by microscopic observation of fluorescent-labeled siRNA.
as §1, with “Cruz) • siRNA fluorescent labeling” for “Cruz) • *siRNA fluorescent labeling”
siRNA/MMP-2 was labeled with Cy3 using the siRNA fluorescent labeling reagent in accordance with the Minis standard protocol. The labeled siRNA was then mixed with the peptide surfactant. siRNA to a final concentration of 50 nM and peptide surfactant to a final concentration of 20 μg/ml were administered to 1×10^5 cells seeded in a 24-well plate containing medium at 1 ml/well, followed by incubating for 0.5, 1, 2, 4, 8, 16 and 24 hours. After washing the wells with PBS, the cells were recovered and transferred to a 96-well plate where they were measured for optical absorbance.

## Ac-AAAAAAK-NH2 [peptide surfactant, Ac-AAAAAAK-NH2]
[1]; 0-25 μg/ml peptide surfactant, siRNA 50 nM, 8 hours, all three cell types (FIG. 3)
  RFU versus peptide surfactant concentration (introduction of siRNA into cells): increases in RFU in proportion to increases in concentration
[1]; Y98G cells, siRNA 50 nM, 8 hours
  concentration at which dose-dependent increases in RFU weakened: ≥ 10 µg/mL
[1]; peptide surfactant 20 μg/ml for 8 hours (with results of Example 3)
  introduction of siRNA into cells: adequately and significantly result in introduction of siRNA into cells
[2]
  CC50 at 24 h: 286 µg/mL
MMP-2 mRNA
  Expression of MMP-2 mRNA: significantly inhibited
[3]
  Uptake of Cy3-labeled siRNA: confirmed
[4]; culturing for 1 to 8 hours
  relative fluorescence units (RFU), siRNA incorporated into cells: increased nearly proportionately
[4]; culturing for longer than 8 hours
  RFU levels: essentially reached a plateau
